Where only a bound is given, the exact number is not on record here.

Assay [1] relates to IL-6 in A549 cells stimulated with IL-1β. In words: A549 Cell Assay to Measure Inflammation Markers (inhibition of IL-1β-induced IL-6). The class given is cell-based. The conditions noted are these: Homo sapiens, A549, A549 Cell Assay to Measure Inflammation Markers; intrinsic activity, Emax class ranges. In short, it runs like this: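 Compound pre-incubated with A549 cells 1 h at 37 °C, then stimulated with IL-1β (1 ng/mL final, 0.1% DMSO). Supernatant IL-6 quantified by MSD immunoassay after a further incubation. IC50 and Emax derived.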

The target of assay [2] is T1, Glucocorticoid Receptor (GR) (Homo sapiens, UniProt P04150).
T1 construct: purchased Invitrogen P2893
T1 sequence (P04150 1-777): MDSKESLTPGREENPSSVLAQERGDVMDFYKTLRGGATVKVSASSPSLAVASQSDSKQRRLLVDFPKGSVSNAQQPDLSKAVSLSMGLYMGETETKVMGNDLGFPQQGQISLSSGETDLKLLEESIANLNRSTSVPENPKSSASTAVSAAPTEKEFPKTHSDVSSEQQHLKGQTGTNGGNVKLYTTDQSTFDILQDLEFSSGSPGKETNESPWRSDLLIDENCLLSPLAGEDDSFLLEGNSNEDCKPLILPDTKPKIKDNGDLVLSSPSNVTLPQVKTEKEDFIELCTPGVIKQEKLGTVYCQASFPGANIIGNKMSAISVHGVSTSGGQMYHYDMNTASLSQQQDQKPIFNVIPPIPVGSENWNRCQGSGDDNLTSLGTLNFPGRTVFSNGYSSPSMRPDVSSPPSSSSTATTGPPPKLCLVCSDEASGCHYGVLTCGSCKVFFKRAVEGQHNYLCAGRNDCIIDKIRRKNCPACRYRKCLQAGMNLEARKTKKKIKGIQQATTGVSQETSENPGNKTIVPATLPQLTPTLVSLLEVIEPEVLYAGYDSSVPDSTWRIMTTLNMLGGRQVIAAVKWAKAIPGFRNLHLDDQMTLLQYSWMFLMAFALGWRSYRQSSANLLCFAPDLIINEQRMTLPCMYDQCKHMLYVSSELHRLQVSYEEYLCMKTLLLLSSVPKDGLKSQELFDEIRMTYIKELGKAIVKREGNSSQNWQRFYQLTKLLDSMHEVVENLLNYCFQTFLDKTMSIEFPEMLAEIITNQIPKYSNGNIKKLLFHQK
In words: GR Fluorescence Polarization Assay (PolarScreen Glucocorticoid Receptor Competitor Assay, Red). The conditions noted are these: IC50 class ranges, read-out: GR binding. A digest of the protocol:
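Competitive fluorescence-polarization assay using a red fluorescent glucocorticoid tracer with human GR in kit buffer. Compounds serially diluted 1:4 in DMSO, incubated with tracer and GR overnight at 4° C, then polarization read.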
Background: In fluorescence polarisation assays a small probe gives low polarisation when free and higher when bound to something large.

Usually Emax stands for the size of the effect at its maximum, as opposed to the concentration needed. For `Cc1cc(C(=O)Nc2cccnc2C)ccc1C1SC(C)(C)CNc2c1c(C)nn2C` (centres unmarked) [H.5], the Emax in assay [1] was under 50%. In assay [2], the IC50 lay within 1000 to 10000 nM.

As for `Cc1cc(Cl)cnc1C1SCCNc2c1c(-c1ccccn1)nn2C` (centres unmarked) [D.21], the Emax in assay [1] is under 50%. Also, the IC50 in assay [2] fell in the range of 100 to 1000 nM.

As for `Cc1cc(C#CCO)ccc1[C@@H]1SC[C@@H](C)Nc2c1c(-c1ccccn1)nn2C` (single isomer, unassigned) [M.70, 3-(4-(1,7-dimethyl-3-(pyridin-2-yl)-4,6,7,8-tetrahydro-1H-pyrazolo[3,4-e][1,4]thiazepin-4-yl)-3-methylphenyl)prop-2-yn-1-ol], in assay [1], the Emax was under 50%. The IC50 in assay [2] is under 100 nM.

Consider `CCn1nc(-c2ccccn2)c2c1NCCSC2c1ccc(C(=O)Nc2n[nH]c(C)c2C#N)cc1C` (centres unmarked) [S.9], for which the Emax in assay [1] is under 50%. In addition, the IC50 in assay [2] is under 100 nM.

For `Cc1cc(Br)ccc1[C@H]1SC[C@H](C(F)(F)F)Nc2c1c(-c1ccccn1)nn2C` (racemic), the Emax in assay [1] was under 50%. In assay [2], the IC50 is 100 to 1000 nM.

Regarding `Cc1cc(C#N)ccc1C1SCC(C)Nc2c1c(-c1ccccn1)nn2C` (centres unmarked) [G.7], in assay [1], the Emax was over 70%. Also, the IC50 in assay [2] was under 100 nM.

Regarding `Cc1cc(Cl)ccc1[C@@H]1S[C@@H](CCO)CNc2c1c(-c1ccccn1)nn2C` (single isomer, unassigned) [M.13, 2-(4-(4-chloro-2-methylphenyl)-1-methyl-3-(pyridin-2-yl)-4,6,7,8-tetrahydro-1H-pyrazolo[3,4-e][1,4]thiazepin-6-yl)ethanol], in assay [1], the Emax is under 50%. Moreover, in assay [2], the IC50 is under 100 nM.

In assay [1], `Cc1cc(Cl)ccc1[C@H]1SC(C)(C)[C@@H](c2ccccc2)Nc2c1c(C)nn2C` (racemic) [K.2] showed an Emax of under 50%. Besides, the IC50 in assay [2] lay in the range of 1000 to 10000 nM.

`Cc1cc(C#CCCO)ccc1[C@@H]1SC[C@@H](C)Nc2c1c(-c1ccccn1)nn2C` (single isomer, unassigned) [M.55, 4-(4-(1,7-dimethyl-3-(pyridin-2-yl)-4,6,7,8-tetrahydro-1H-pyrazolo[3,4-e][1,4]thiazepin-4-yl)-3-methylphenyl)but-3-yn-1-ol] displayed an Emax in assay [1] of under 50%. Moreover, in assay [2], the IC50 was under 100 nM.

As for `Cc1cc(Cl)ccc1[C@@H]1S[C@H](CCO)CNc2c1c(C)nn2C` (single isomer, unassigned) [M.17, 2-[4-(4-chloro-2-methyl-phenyl)-1,3-dimethyl-4,6,7,8-tetrahydro-1H-pyrazolo[3,4-e][1,4]thiazepin-6-yl]-ethanol], in assay [1], the Emax was under 50%. In assay [2], the IC50 is 100 to 1000 nM.

In assay [1], `Cc1cc(Br)ccc1C1SC(C)CNc2c1c(C1CC1)nn2C` (centres unmarked) [D.51, 4-(4-bromo-2-methyl-phenyl)-3-cyclopropyl-1,6-dimethyl-4,6,7,8-tetrahydropyrazolo[3,4-e][1,4]thiazepine] had an Emax of under 50%. Also, the IC50 in assay [2] was in the range of 100 to 1000 nM.

In assay [1], `Cc1cc(Cl)ccc1C1SCCNc2c1c(C)nn2C` (centres unmarked) [D.59] displayed an Emax of under 50%. Also, in assay [2], the IC50 was in the range of 100 to 1000 nM.

In assay [1], `Cc1cc(CCCO)ccc1[C@@H]1SC[C@H](C)Nc2c1c(-c1ccccn1)nn2C` (single isomer, unassigned) [M.52, 3-(4-(1,7-dimethyl-3-(pyridin-2-yl)-4,6,7,8-tetrahydro-1H-pyrazolo[3,4-e][1,4]thiazepin-4-yl)-3-methylphenyl)propan-1-ol] yielded a maximal response (Emax) of under 50%. For the same molecule, the IC50 in assay [2] is under 100 nM.

With `Cc1cc(CCC(C)(C)O)ccc1[C@@H]1SC[C@H](C)Nc2c1c(-c1ccccn1)nn2C` (single isomer, unassigned) [M.42, 4-(4-(1,7-dimethyl-3-(pyridin-2-yl)-4,6,7,8-tetrahydro-1H-pyrazolo[3,4-e][1,4]thiazepin-4-yl)-3-methylphenyl)-2-methylbutan-2-ol], the Emax in assay [1] is over 60%. For the same molecule, the IC50 in assay [2] was under 100 nM.

In turn, `Cn1nc(-c2ccccn2)c2c1NCCSC2c1ccc(Cl)cc1Cl` (centres unmarked) [D.8, 4-(2,4-dichlorophenyl)-1-methyl-3-(2-pyridyl)-4,6,7,8-tetrahydropyrazolo[3,4-e][1,4]thiazepine] had an Emax in assay [1] of under 50%. Further, the IC50 in assay [2] was under 100 nM.

`Cc1cc(Cl)ccc1[C@@H]1S[C@@H](CCO)[C@@H](C)Nc2c1c(C)nn2C` (racemic) yielded an Emax in assay [1] of over 70%. In addition, the IC50 in assay [2] was under 100 nM.

For the molecule `Cc1ccc(Br)cc1C1SC(C)(C)CNc2c1c(C1CC1)nn2C` (centres unmarked) [D.55, 4-(5-bromo-2-methyl-phenyl)-3-cyclopropyl-1,6,6-trimethyl-7,8-dihydro-4H-pyrazolo[3,4-e][1,4]thiazepine], the Emax in assay [1] was under 50%. Besides, in assay [2], the IC50 was under 100 nM.

For `Cn1nc(-c2ccccn2)c2c1NCCSC2c1ccc(Cl)cc1` (centres unmarked) [D.23], the Emax in assay [1] is under 50%. In assay [2], the IC50 lay in the range of 100 to 1000 nM.

In assay [1], `Cn1nc(-c2ccccn2)c2c1NCCS[C@H]2c1ccc(Br)cc1Cl` (single isomer, unassigned) [M.2, 4-(4-bromo-2-chlorophenyl)-1-methyl-3-(pyridin-2-yl)-4,6,7,8-tetrahydro-1H-pyrazolo[3,4-e][1,4]thiazepine] yielded an Emax of under 50%. Moreover, in assay [2], the IC50 is under 100 nM.

The molecule `Cn1nc(-c2ccccn2)c2c1NCC(C)(C)SC2c1ccc(Cl)cc1Cl` (centres unmarked) [D.32] returned an Emax in assay [1] of under 50%. For the same molecule, the IC50 in assay [2] was under 100 nM.

In assay [1], `Cc1nn(C)c2c1C(c1ccc(Cl)cc1Cl)SC1(CCC1)CN2` (centres unmarked) [D.66] registered an Emax of under 50%. Moreover, in assay [2], the IC50 was under 100 nM.

As to `CC(=O)N1CCC(C2SCCNc3c2c(-c2ccccn2)nn3C)CC1` (centres unmarked), the Emax in assay [1] was under 50%. In addition, in assay [2], the IC50 is over 10000 nM.

Take `Cc1cc(Cl)ccc1[C@@H]1S[C@@H](CCO)CNc2c1c(C)nn2C` (single isomer, unassigned) [M.16, 2-[4-(4-chloro-2-methyl-phenyl)-1,3-dimethyl-4,6,7,8-tetrahydro-1H-pyrazolo[3,4-e][1,4]thiazepin-6-yl]-ethanol]: the Emax in assay [1] is under 50%. In addition, in assay [2], the IC50 was in the range of 1000 to 10000 nM.

As to `Cc1cc(Cl)ccc1[C@@H]1SC(C)(C)CNc2c1c(C1CC1)nn2C`, the Emax in assay [1] was under 50%. For the same molecule, the IC50 in assay [2] is 100 to 1000 nM.

Turning to `Cc1cc(CCCO)ccc1[C@@H]1SC[C@@H](C)Nc2c1c(-c1ccccn1)nn2C` (single isomer, unassigned) [M.51, 3-(4-(1,7-dimethyl-3-(pyridin-2-yl)-4,6,7,8-tetrahydro-1H-pyrazolo[3,4-e][1,4]thiazepin-4-yl)-3-methylphenyl)propan-1-ol], the Emax in assay [1] was under 50%. Also, in assay [2], the IC50 was under 100 nM.

`CCn1nc(-c2ccccn2)c2c1N[C@H](C)CS[C@H]2c1ccc(C(N)=O)cc1C` (single isomer, unassigned) [M.46, 4-(1-ethyl-7-methyl-3-(pyridin-2-yl)-4,6,7,8-tetrahydro-1H-pyrazolo[3,4-e][1,4]thiazepin-4-yl)-3-methylbenzamide] came in with an Emax in assay [1] of over 50%. The IC50 in assay [2] was under 100 nM.

Molecule `COC(=O)c1ccc(C)c(C2SCCNc3c2c(-c2ccccn2)nn3C)c1` (centres unmarked) [E.3, methyl 4-methyl-3-[1-methyl-3-(2-pyridyl)-4,6,7,8-tetrahydropyrazolo[3,4-e][1,4]thiazepin-4-yl]benzoate] registered an Emax in assay [1] of under 50%. The IC50 in assay [2] was over 10000 nM.

On to `Cc1ncccc1NC(=O)c1ccc(C2SCCNc3c2c(-c2ccccn2)nn3C)c(Cl)c1` (centres unmarked) [F.1, 3-chloro-N-(2-methyl-3-pyridyl)-4-[1-methyl-3-(2-pyridyl)-4,6,7,8-tetrahydropyrazolo[3,4-e][1,4]thiazepin-4-yl]benzamide], for which, in assay [1], the Emax was over 70%. The IC50 in assay [2] was under 100 nM.

For `CCc1cc(Cl)ccc1C1SCCNc2c1c(-c1ccccn1)nn2C` (centres unmarked), in assay [1], the Emax is over 50%. Besides, in assay [2], the IC50 was under 100 nM.

For `Cc1cc(Br)ccc1C1SC(C)CNc2c1c(C)nn2C` (centres unmarked) [D.62, 4-(4-bromo-2-methyl-phenyl)-1,3,6-trimethyl-4,6,7,8-tetrahydropyrazolo[3,4-e][1,4]thiazepine], the Emax in assay [1] was under 50%. In addition, in assay [2], the IC50 fell in the range of 100 to 1000 nM.

In assay [1], `Cn1nc(-c2ccccn2)c2c1NCCSC2c1ccccc1Cl` (centres unmarked) showed a maximal response (Emax) of under 50%. Further, the IC50 in assay [2] was under 100 nM.

In the case of `Cn1nc(-c2ccncc2)c2c1NCCSC2c1ccc(Cl)cc1Cl` (centres unmarked) [D.18], the Emax in assay [1] is under 50%. Further, in assay [2], the IC50 was in the range of 100 to 1000 nM.

In assay [1], `Cc1cc(Br)ccc1[C@@H]1SC[C@H](CO)Nc2c1c(-c1ccccn1)nn2C` (racemic) [K.9] had an Emax of under 50%. In addition, the IC50 in assay [2] is under 100 nM.

The molecule `Cc1cc(C(F)(F)F)ccc1C1SCCNc2c1c(-c1ccccn1)nn2C` (centres unmarked) [D.41] returned an Emax in assay [1] of under 50%. Moreover, the IC50 in assay [2] was under 100 nM.
